Biological target: ASK1 (Homo sapiens (Human), UniProt Q99683)
Test: HTRF KinEASE Assay, inhibition of ASK1
Type: biochemical
Settings: 5 nM ASK1 kinase, 1 uM STK3 peptide substrate, 100 uM ATP, TR-FRET; read-out: IC50 range
Description: HTRF® KinEASE™ Assay ASK1 was purchased from Thermofisher (Catalogue # PV4011), ATP was purchased from Sigma (Catalogue # A7699), HTRF® KinEASE™ Assay System was obtained from Cisbio (Bedford, Mass.). ½ Area plate was purchased from Perkin Elmer (Catalogue # #6005560). HTRF® KinEASE™-STK is a generic method for measuring serine/threonine kinase activities using a time-resolved fluorescence resonance energy transfer (TR-FRET) immunoassay. […] The test compound, 1 uM STK3 peptide substrate, and 5 nM of ASK1 kinase are incubated with kinase reaction buffer containing 50 mM HEPES pH 7.5, 0.01% BRIJ-35, 10 mM MgCl2, and 1 mM EGTA for 30 minutes. 100 uM ATP is added to start kinase reaction and incubated for 3 hours. The STK3-antibody labeled with Eu^3+-Cryptate and 125 nM streptavidin-XL665 are mixed in a single addition with stop reagents provided by the Cisbio kit used to stop the kinase reaction. Fluorescence is detected using an Envision Multilabeled 2014 reader from PerkinElmer. The Fluorescence is measured at 615 nm (Cryptate) and 665 nm (XL665) and a ratio of 665 nm/615 nm is calculated for each well. The resulting TR-FRET is proportional to the phosphorylation level. […] IC50 was determined by XLfit 5.3. By using above method, the inhibition of ASK1 was evaluated for the compounds of Formula (I).

ASK1, sequence (Q99683 whole entry): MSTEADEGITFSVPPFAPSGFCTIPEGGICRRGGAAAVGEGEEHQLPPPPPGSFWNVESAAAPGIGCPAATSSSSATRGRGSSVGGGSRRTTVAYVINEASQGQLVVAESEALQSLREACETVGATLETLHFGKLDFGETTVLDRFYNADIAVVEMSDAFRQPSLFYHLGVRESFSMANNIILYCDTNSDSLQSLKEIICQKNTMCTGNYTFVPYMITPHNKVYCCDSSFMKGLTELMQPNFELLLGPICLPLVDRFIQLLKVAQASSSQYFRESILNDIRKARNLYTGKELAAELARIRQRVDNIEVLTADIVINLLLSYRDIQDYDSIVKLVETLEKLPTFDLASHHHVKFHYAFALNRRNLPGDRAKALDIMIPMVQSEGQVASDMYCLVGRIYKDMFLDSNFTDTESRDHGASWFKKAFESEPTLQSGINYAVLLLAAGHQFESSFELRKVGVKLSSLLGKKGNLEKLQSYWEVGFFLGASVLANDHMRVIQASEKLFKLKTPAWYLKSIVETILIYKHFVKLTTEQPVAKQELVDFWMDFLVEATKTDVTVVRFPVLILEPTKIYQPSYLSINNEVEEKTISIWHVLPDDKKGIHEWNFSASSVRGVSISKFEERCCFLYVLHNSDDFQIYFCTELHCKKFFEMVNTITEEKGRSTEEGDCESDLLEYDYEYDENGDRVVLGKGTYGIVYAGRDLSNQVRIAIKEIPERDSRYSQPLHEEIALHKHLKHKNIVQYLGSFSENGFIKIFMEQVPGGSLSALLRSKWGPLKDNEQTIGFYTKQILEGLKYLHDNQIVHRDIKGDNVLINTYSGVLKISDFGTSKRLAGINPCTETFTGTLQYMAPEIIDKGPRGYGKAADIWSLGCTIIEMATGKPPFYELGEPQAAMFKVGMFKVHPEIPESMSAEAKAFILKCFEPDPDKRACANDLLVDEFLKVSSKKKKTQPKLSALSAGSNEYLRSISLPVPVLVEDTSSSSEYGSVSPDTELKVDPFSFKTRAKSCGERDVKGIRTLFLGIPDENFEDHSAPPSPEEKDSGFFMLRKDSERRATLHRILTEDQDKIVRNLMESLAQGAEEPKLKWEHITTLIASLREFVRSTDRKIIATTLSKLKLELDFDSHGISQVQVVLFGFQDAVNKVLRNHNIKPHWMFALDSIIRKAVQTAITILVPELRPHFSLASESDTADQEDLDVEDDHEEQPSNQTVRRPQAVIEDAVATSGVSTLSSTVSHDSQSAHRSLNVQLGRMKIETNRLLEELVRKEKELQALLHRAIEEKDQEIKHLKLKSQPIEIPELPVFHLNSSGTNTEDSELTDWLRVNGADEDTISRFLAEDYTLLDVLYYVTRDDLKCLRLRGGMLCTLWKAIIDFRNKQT

Row | SMILES | IC50 [nM]
1 | CC(C)n1nnnc1-c1cccc(NC(=O)c2cc3c(cc2F)CN(C(C)(C)C)S3(=O)=O)n1 [Example 1, 2-(tert-butyl)-5-fluoro-N-(6-(1-isopropyl-1H-tetrazol-5-yl)pyridin-2-yl)-2,3-dihydrobenzo[d]isothiazole-6-carboxamide 1,1-dioxide] | 100 to 1000
2 | C[C@H](CO)n1nnnc1-c1cccc(NC(=O)c2cc3c(cc2F)CN(C(C)(C)C)S3(=O)=O)n1 [Example 2, (R)-2-(tert-butyl)-5-fluoro-N-(6-(1-(1-hydroxypropan-2-yl)-1H-tetrazol-5-yl)pyridin-2-yl)-2,3-dihydrobenzo[d]isothiazole-6-carboxamide 1,1-dioxide] | 10 to 100
3 | CC(C)n1nnnc1-c1cccc(NC(=O)c2cc3c(cc2F)CCN(C(C)(C)C)S3(=O)=O)n1 [Example 4, 2-(tert-butyl)-6-fluoro-N-(6-(1-isopropyl-1H-tetrazol-5-yl)pyridin-2-yl)-3,4-dihydro-2H-benzo[e][1,2]thiazine-7-carboxamide 1,1-dioxide] | 10 to 100
4 | COc1cc2c(cc1C(=O)Nc1cccc(-c3nnnn3C(C)C)n1)S(=O)(=O)N(C(C)(C)C)C2 [Example 6, 2-(tert-butyl)-N-(6-(1-isopropyl-1H-tetrazol-5-yl)pyridin-2-yl)-5-methoxy-2,3-dihydrobenzo[d]isothiazole-6-carboxamide 1,1-dioxide] | > 1000
5 | CC(C)N1Cc2cc(F)c(C(=O)Nc3cccc(-c4nncn4C(C)C)n3)cc2S1(=O)=O [Example 7, 5-fluoro-2-isopropyl-N-(6-(4-isopropyl-4H-1,2,4-triazol-3-yl)pyridin-2-yl)-2,3-dihydrobenzo[d]isothiazole-6-carboxamide 1,1-dioxide] | 10 to 100
6 | COc1cc2c(cc1C(=O)Nc1cccc(-c3nncn3C(C)C)n1)S(=O)(=O)N(C(C)C)C2 [Example 8, 2-isopropyl-N-(6-(4-isopropyl-4H-1,2,4-triazol-3-yl)pyridin-2-yl)-5-methoxy-2,3-dihydrobenzo[d]isothiazole-6-carboxamide 1,1-dioxide] | < 1.5
7 | CC(C)N1Cc2cc(F)c(C(=O)Nc3cccc(-c4nnnn4[C@H](C)CO)n3)cc2S1(=O)=O [Example 9, (R)-5-fluoro-N-(6-(1-(1-hydroxypropan-2-yl)-1H-tetrazol-5-yl)pyridin-2-yl)-2-isopropyl-2,3-dihydrobenzo[d]isothiazole-6-carboxamide 1,1-dioxide] | 10 to 100
8 | COc1cc2c(cc1C(=O)Nc1cccc(-c3nnnn3[C@H](C)CO)n1)S(=O)(=O)N(C(C)C)C2 [Example 10, (R)—N-(6-(1-(1-hydroxypropan-2-yl)-1H-tetrazol-5-yl)pyridin-2-yl)-2-isopropyl-5-methoxy-2,3-dihydrobenzo[d]isothiazole-6-carboxamide 1,1-dioxide] | < 1.5
9 | CC(C)N1Cc2cc(OCC(F)(F)F)c(C(=O)Nc3cccc(-c4nnnn4[C@H](C)CO)n3)cc2S1(=O)=O [Example 12, (R)—N-(6-(1-(1-hydroxypropan-2-yl)-1H-tetrazol-5-yl)pyridin-2-yl)-2-isopropyl-5-(2,2,2-trifluoroethoxy)-2,3-dihydrobenzo[d]isothiazole-6-carboxamide 1,1-dioxide] | 100 to 1000
10 | CC(C)Oc1cc2c(cc1C(=O)Nc1cccc(-c3nnnn3[C@H](C)CO)n1)S(=O)(=O)N(C(C)C)C2 [Example 13, (R)—N-(6-(1-(1-hydroxypropan-2-yl)-1H-tetrazol-5-yl)pyridin-2-yl)-5-isopropoxy-2-isopropyl-2,3-dihydrobenzo[d]isothiazole-6-carboxamide 1,1-dioxide] | 10 to 100
11 | CC(C)N1Cc2cc(N(C)C)c(C(=O)Nc3cccc(-c4nnnn4[C@H](C)CO)n3)cc2S1(=O)=O [Example 14, (R)-5-(dimethylamino)-N-(6-(1-(1-hydroxypropan-2-yl)-1H-tetrazol-5-yl)pyridin-2-yl)-2-isopropyl-2,3-dihydrobenzo[d]isothiazole-6-carboxamide 1,1-dioxide] | 10 to 100
12 | CC(C)n1cnnc1-c1cccc(NC(=O)c2cc3c(cc2F)CN(C)S3(=O)=O)n1 [Example 15, 5-fluoro-N-(6-(4-isopropyl-4H-1,2,4-triazol-3-yl)pyridin-2-yl)-2-methyl-2,3-dihydrobenzo[d]isothiazole-6-carboxamide 1,1-dioxide] | 10 to 100
13 | COc1cc2c(cc1C(=O)Nc1cccc(-c3nncn3C(C)C)n1)S(=O)(=O)N(C)C2 [Example 16, N-(6-(4-isopropyl-4H-1,2,4-triazol-3-yl)pyridin-2-yl)-5-methoxy-2-methyl-2,3-dihydrobenzo[d]isothiazole-6-carboxamide 1,1-dioxide] | < 1.5
14 | C[C@H](CO)n1nnnc1-c1cccc(NC(=O)c2cc3c(cc2F)CN(C)S3(=O)=O)n1 [Example 17, (R)-5-fluoro-N-(6-(1-(1-hydroxypropan-2-yl)-1H-tetrazol-5-yl)pyridin-2-yl)-2-methyl-2,3-dihydrobenzo[d]isothiazole-6-carboxamide 1,1-dioxide] | 10 to 100
15 | COc1cc2c(cc1C(=O)Nc1cccc(-c3nnnn3[C@H](C)CO)n1)S(=O)(=O)N(C)C2 [Example 18, (R)—N-(6-(1-(1-hydroxypropan-2-yl)-1H-tetrazol-5-yl)pyridin-2-yl)-5-methoxy-2-methyl-2,3-dihydrobenzo[d]isothiazole-6-carboxamide 1,1-dioxide] | < 1.5
16 | COCCN1Cc2cc(F)c(C(=O)Nc3cccc(-c4nncn4C(C)C)n3)cc2S1(=O)=O [Example 19, 5-fluoro-N-(6-(4-isopropyl-4H-1,2,4-triazol-3-yl)pyridin-2-yl)-2-(2-methoxyethyl)-2,3-dihydrobenzo[d]isothiazole-6-carboxamide 1,1-dioxide] | 10 to 100
17 | COCCN1Cc2cc(OC)c(C(=O)Nc3cccc(-c4nncn4C(C)C)n3)cc2S1(=O)=O [Example 20, N-(6-(4-isopropyl-4H-1,2,4-triazol-3-yl)pyridin-2-yl)-5-methoxy-2-(2-methoxyethyl)-2,3-dihydrobenzo[d]isothiazole-6-carboxamide 1,1-dioxide] | 10 to 100
18 | COCCN1Cc2cc(F)c(C(=O)Nc3cccc(-c4nnnn4[C@H](C)CO)n3)cc2S1(=O)=O [Example 21, (R)-5-fluoro-N-(6-(1-(1-hydroxypropan-2-yl)-1H-tetrazol-5-yl)pyridin-2-yl)-2-(2-methoxyethyl)-2,3-dihydrobenzo[d]isothiazole-6-carboxamide 1,1-dioxide] | < 1.5
19 | COCCN1Cc2cc(OC)c(C(=O)Nc3cccc(-c4nnnn4[C@H](C)CO)n3)cc2S1(=O)=O [Example 22, (R)—N-(6-(1-(1-hydroxypropan-2-yl)-1H-tetrazol-5-yl)pyridin-2-yl)-5-methoxy-2-(2-methoxyethyl)-2,3-dihydrobenzo[d]isothiazole-6-carboxamide 1,1-dioxide] | < 1.5

— patent US10683289B2, “Apoptosis signal-regulating kinase 1 inhibitors and methods of use thereof” (ENANTA PHARMACEUTICALS, INC., priority 2018, dated 2020)
